# Assay results from patent US9200001B2, “Triazolyl PDE10 inhibitors” (Merck Sharp & Dohme Corp., priority 2011, dated 2015).
# Target: human PDE10A2 (Homo sapiens (Human), UniProt Q9Y233)
# Assay: PDE10 fluorescence polarization (IMAP FP) inhibition assay
# Assay type: biochemical
# Conditions: FAM-labeled cAMP 50 nM, room temperature, read-out: PDE10a Ki
# Method: The activity of the compounds in accordance with the present invention as PDE10 inhibitors may be readily determined without undue experimentation using a fluorescence polarization (FP) methodology that is well known in the art (Huang, W., et al., J. Biomol Screen, 2002, 7: 215).
# In a typical experiment the PDE10 inhibitory activity of the compounds of the present invention was determined in accordance with the following experimental method. PDE10A2 was amplified from human fetal brain cDNA (Clontech, Mountain View, Calif.) using a forward primer corresponding to nucleotides 56-77 of human PDE10A2 (Accession No. AF127480, Genbank Identifier 4894716), containing a Kozak consensus sequence, and a reverse primer corresponding to nucleotides 2406-2413 of human PDE10A2 (Accession No. AF127480, Genbank Identifier 4894716). Amplification with Easy-A polymerase (Stratagene, La Jolla, Calif.) was 95° C. for 2 minutes followed by thirty three cycles of 95° C. for 40 seconds, 55° C. for 30 seconds, and 72° C. for 2 minutes 48 seconds. Final extension was 72° C. for 7 minutes. The PCR product was TA cloned into pcDNA3.2-TOPO (Invitrogen, Carlsbad, Calif.) according to standard protocol. AD293 cells with 70-80% confluency were transiently transfected with human PDE10A2/pcDNA3.2-TOPO using Lipofectamine 2000 according to manufacturer specifications (Invitrogen, Carlsbad, Calif.). Cells were harvested 48 hours post-transfection and lysed by sonication (setting 3, 10×5 sec pulses) in a buffer containing 20 mM HEPES, 1 mM EDTA and protease inhibitor cocktail (Roche). Lysate was collected by centrifugation at 75,000×g for 20 minutes. Supernatant containing the cytoplasmic fraction was used for evaluation of PDE10A2 activity. The fluorescence polarization assay for cyclic nucleotide phosphodiesterases was performed using an IMAP® FP kit supplied by Molecular Devices, Sunnyvale, Calif. (product # R8139). IMAP® technology has been applied previously to phosphodiesterase assays (Huang, W., et al., J. Biomol Screen, 2002, 7: 215). Assays were performed at room temperature in 384-well microtiter plates with an incubation volume of 20.2 μL. Solutions of test compounds were prepared in DMSO and serially diluted with DMSO to yield 8 μL of each of 10 solutions differing by 3-fold in concentration, at 32 serial dilutions per plate. 100% inhibition is determined using a known PDE10 inhibitor, which can be any compound that is present at 5,000 times its Ki value in the assay described as follows, such as papaverine (see Siuciak, et al. Neuropharmacology (2006) 51:386-396; Becker, et al. Behav Brain Res (2008) 186(2):155-60; Threlfell, et al., J Pharmacol Exp Ther (2009) 328(3):785-795), 2-{4-[pyridin-4-yl-1-(2,2,2-trifluoroethyl)-1H-pyrazol-3-yl]phenoxymethyl}quinoline succinic acid or 2-[4-(1-methyl-4-pyridin-4-yl-1H-pyrazol-3-yl)-phenoxymethyl]quinoline succinic acid (see Schmidt, et al. J Pharmacol Exp Ther (2008) 325:681-690; Threlfall, et al., J Pharmacol Exp Ther (2009) 328(3): 785-795). 0% of inhibition is determined by using DMSO (1% final concentrations).
# A Labcyte Echo 555 (Labcyte, Sunnyvale, Calif.) is used to dispense 200 nL from each well of the titration plate to the 384 well assay plate. A solution of enzyme (1/1600 dilution from aliquots; sufficient to produce 20% substrate conversion) and a separate solution of FAM-labeled cAMP PDE from Molecular Devices (product # R7506), at a final concentration of 50 nM are made in the assay buffer (10 mM Tris HCl, pH 7.2, 10 mM MgCl2, 0.05% NaN3 0.01% Tween-20, and 1 mM DTT). The enzyme and the substrate are then added to the assay plates in two consecutive additions of 10 μL, and then shaken to mix. The reaction is allowed to proceed at room temperature for 30 minutes. A binding solution is then made from the kit components, comprised of 80% Solution A, 20% Solution B and binding reagent at a volume of 1600 the total binding solution. […]
# Chain of human PDE10A2 (Q9Y233 267-1055): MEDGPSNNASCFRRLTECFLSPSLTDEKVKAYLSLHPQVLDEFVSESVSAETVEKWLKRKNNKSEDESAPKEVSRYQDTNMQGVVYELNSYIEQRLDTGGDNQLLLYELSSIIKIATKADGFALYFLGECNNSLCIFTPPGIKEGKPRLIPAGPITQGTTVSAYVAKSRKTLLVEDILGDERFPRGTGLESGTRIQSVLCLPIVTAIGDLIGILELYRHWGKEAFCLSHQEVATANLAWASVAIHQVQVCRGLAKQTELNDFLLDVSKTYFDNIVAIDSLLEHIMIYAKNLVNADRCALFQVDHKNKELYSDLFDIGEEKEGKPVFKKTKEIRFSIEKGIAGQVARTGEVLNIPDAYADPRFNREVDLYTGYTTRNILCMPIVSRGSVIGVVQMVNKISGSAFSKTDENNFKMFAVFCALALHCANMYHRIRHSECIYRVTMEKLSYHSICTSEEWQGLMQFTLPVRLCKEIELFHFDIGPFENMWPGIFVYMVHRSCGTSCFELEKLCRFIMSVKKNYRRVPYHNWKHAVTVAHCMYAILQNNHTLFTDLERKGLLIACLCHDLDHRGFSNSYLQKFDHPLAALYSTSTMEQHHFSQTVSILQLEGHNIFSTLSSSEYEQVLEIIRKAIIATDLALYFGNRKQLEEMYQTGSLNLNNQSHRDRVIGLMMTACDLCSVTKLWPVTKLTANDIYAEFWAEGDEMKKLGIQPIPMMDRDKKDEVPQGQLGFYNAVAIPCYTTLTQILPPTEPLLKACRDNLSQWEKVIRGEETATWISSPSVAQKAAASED
row,Compound,Ki [nM]
1,"Cc1ccc(C2CC2c2cc(-n3nc(C)nc3Cc3ccccc3)nc(C)n2)nc1 (stereo not drawn) [Cpd 49, 4-(5-benzyl-3-methyl-1H-1,2,4-tiazol-1-yl)-2-methyl-6-(2-(5-methylpyridin-2-yl)cyclopropyl)pyrimidine]",0.21
2,"COc1ccc(Cc2nc(C)nn2-c2cc(/C=C/c3ccc(C)cn3)nc(C)n2)cc1OC [Cpd 20, (E)-4-(5-(3,4-dimethoxybenzyl)-3-methyl-1H-1,2,4-triazol-1-yl)-2-methyl-6-(2-(5-methylpyridin-2-yl)vinyl)pyrimidine]",0.11
3,"Cc1ccc2nc(C3CC3c3cc(-n4nc(C)nc4C)nc(C)n3)[nH]c2c1 (stereo not drawn) [Cpd 58, 2-(2-(6-(3,5-dimethyl-1H-1,2,4-triazol-1-yl)-2-methylpyrimidin-4-yl)cyclopropyl)-6-methyl-1H-benzo[d]imidazole]",34.9
4,"COc1ccc(Cc2nc(C)nn2-c2cc(CCc3ccc4ccccc4n3)nc(C)n2)cc1OC [Cpd 3, 2-(2-(6-(5-(3,4-dimethoxybenzyl)-3-methyl-1H-1,2,4-triazol-1-yl)-2-methylpyrimidin-4-yl)ethyl)quinoline]",0.004
5,"CCc1nc(CC)n(-c2cc([C@@H]3C[C@H]3c3nc4ccccc4n3C)nc(C)n2)n1 [Cpd 106, 2-{(1R,2R)-2-[6-(3,5-diethyl-1H-1,2,4-triazol-1-yl)-2-methylpyrimidin-4-yl]cyclopropyl}-1-methyl-1H-benzimidazole]",2.8
6,"Cc1nc([C@@H]2C[C@H]2c2nc3ccccc3n2C)cc(-n2nc(C)nc2C2CCOCC2)n1 [Cpd 97, 1-methyl-2-[(1R,2R)-2-{2-methyl-6-[3-methyl-5-(tetrahydro-2H-pyran-4-yl)-1H-1,2,4-triazol-1-yl]pyrimidin-4-yl}cyclopropyl]-1H-benzimidazole]",1.1
7,"Cc1nc([C@@H]2C[C@H]2c2nc3ccccc3n2Cc2ccccn2)cc(-n2nc(C)nc2C)n1 (stereo in doubt) [Cpd 73, 2-{2-[6-(3,5-dimethyl-1H-1,2,4-triazol-1-yl)-2-methylpyrimidin-4-yl]cyclopropyl}-1-(pyridin-2-ylmethyl)-1H-benzimidazole]",13.1
8,"COc1ccc(Cc2nc(C)nn2-c2cc(/C=C/c3ccc4ccccc4n3)nc(C)n2)cc1OC [Cpd 18, (E)-2-(2-(6-(5-(3,4-dimethoxybenzyl)-3-methyl-1H-1,2,4-triazol-1-yl)-2-methylpyrimidin-4-yl)vinyl)quinoline]",0.002
9,"Cc1nc(C2CC2c2nc3ccc(OC(F)F)cc3[nH]2)cc(-n2nc(C)nc2C)n1 (stereo not drawn) [Cpd 60, 6-(difluoromethoxy)-2-(2-(6-(3,5-dimethyl-1H-1,2,4-triazol-1-yl)-2-methylpyrimidin-4-yl)cyclopropyl)-1H-benzo[d]imidazole]",58.2
10,"Cc1nc(C)n(-c2cc([C@@H]3C[C@H]3c3nc4ccccc4n3C)nc(OCC3CCO3)n2)n1 (stereo partly drawn) [Cpd 138, 2-((1R,2R)-2-(6-(3,5-dimethyl-1H-1,2,4-triazol-1-yl)-2-(oxetan-2-ylmethoxy)pyrimidin-4-yl)cyclopropyl)-1-methyl-1H-benzo[d]imidazole]",1.3
11,"Cc1nc(CCc2ccc3ncccc3n2)cc(-n2nc(C)nc2C)n1 [Cpd 99, 2-{2-[6-(3,5-dimethyl-1H-1,2,4-triazol-1-yl)-2-methylpyrimidin-4-yl]ethyl}-1,5-naphthyridine]",73
12,"Cc1nc(C)n(-c2cc([C@@H]3C[C@H]3c3nc4ccccc4n3C)nc(OCC3(C)CC3)n2)n1 [Cpd 137, 2-((1R,2R)-2-(6-(3,5-dimethyl-1H-1,2,4-triazol-1-yl)-2-((1-methylcyclopropyl)methoxy)pyrimidin-4-yl)cyclopropyl)-1-methyl-1H-benzo[d]imidazole]",0.84
13,"Cc1nc(C2CC2c2nc3cc(F)c(F)cc3[nH]2)cc(-n2nc(C)nc2C)n1 (stereo not drawn) [Cpd 54, 2-(2-(6-(3,5-dimethyl-1H-1,2,4-triazol-1-yl)-2-methylpyrimidin-4-yl)cyclopropyl)-5,6-difluoro-1H-benzo[d]imidazole]",25.1
14,"COc1ccc(Cc2nc(C)nn2-c2cc(C#Cc3ccc4ncccc4n3)nc(C)n2)cc1OC [Cpd 14, 2-((6-(5-(3,4-dimethoxybenzyl)-3-methyl-1H-1,2,4-triazol-1-yl)-2-methylpyrimidin-4-yl)ethynyl)-1,5-naphthyridine]",0.82
15,"Cc1nc(OCc2ccc3ccccc3n2)cc(-n2nc(C)nc2Cc2nc(C)sc2C)n1 [Cpd 9, 2,5-dimethyl-4-((3-methyl-1-(2-methyl-6-(quinolin-2-ylmethoxy)pyrimidin-4-yl)-1H-1,2,4-triazol-5-yl)methyl)thiazole]",62
16,"COCCOc1nc([C@@H]2C[C@H]2c2nc3ccccc3n2C)cc(-n2nc(C)nc2C)n1 [Cpd 65, 2-{(1R,2R)-2-[6-(3,5-dimethyl-1H-1,2,4-triazol-1-yl)-2-(2-methoxyethoxy)pyrimidin-4-yl]cyclopropyl}-1-methyl-1H-benzimidazole]",1.08
17,"Cc1nc(C2CC2c2nc3ccccc3n2Cc2ccccc2)cc(-n2nc(C)nc2C)n1 (stereo not drawn) [Cpd 52, 1-benzyl-2-(2-(6-(3,5-dimethyl-1H-1,2,4-triazol-1-yl)-2-methylpyrimidin-4-yl)cyclopropyl)-1H-benzo[d]imidazole]",13.4

# More lines, now with the values ahead:
row,Ki [nM],Compound
1,2,"Cc1nc(C)n(-c2cc([C@H]3C[C@@H]3c3nc4ccccc4n3C)nc(N3CCNCC3)n2)n1 (relative stereo) [Cpd 126, trans-2-{2-[6-(3,5-dimethyl-1H-1,2,4-triazol-1-yl)-2-piperazin-1-ylpyrimidin-4-yl]cyclopropyl}-1-methyl-1H-benzimidazole]"
2,16.8,"Cc1nc(C2CC2c2nc3cccc(C)c3[nH]2)cc(-n2nc(C)nc2C)n1 (stereo not drawn) [Cpd 55, 2-(2-(6-(3,5-dimethyl-1H-1,2,4-triazol-1-yl)-2-methylpyrimidin-4-yl)cyclopropyl)-7-methyl-1H-benzo[d]imidazole]"
3,1.5,"Cc1nc(C)n(-c2cc([C@H]3C[C@@H]3c3nc4ccccc4n3C)nc(OCC(F)(F)F)n2)n1 (relative stereo) [Cpd 124, trans-2-{2-[6-(3,5-dimethyl-1H-1,2,4-triazol-1-yl)-2-(2,2,2-trifluoroethoxy)pyrimidin-4-yl]cyclopropyl}-1-methyl-1H-benzimidazole]"
4,60.7,"Cc1nc([C@@H]2C[C@H]2c2cc3n(n2)CCCC3)cc(-n2nc(C)nc2C)n1 [Cpd 107, 2-{(1R,2R)-2-[6-(3,5-dimethyl-1H-1,2,4-triazol-1-yl)-2-methylpyrimidin-4-yl]cyclopropyl}-4,5,6,7-tetrahydropyrazolo[1,5-a]pyridine]"
5,0.085,"Cc1nc(C)n(-c2cc([C@@H]3C[C@H]3c3nc4ccccc4n3C)nc(C#N)n2)n1 [Cpd 61, 4-(3,5-dimethyl-1H-1,2,4-triazol-1-yl)-6-[(1R,2R)-2-(1-methyl-1H-benzimidazol-2-yl)cyclopropyl]primidine-2-carbonitrile]"
6,248,"COc1ccc(Cc2nc(C)nn2-c2cc(C3CC3c3nc(C)no3)nc(C)n2)cc1OC (stereo not drawn) [Cpd 24, 5-(2-(6-(5-(3,4-dimethoxybenzyl)-3-methyl-1H-1,2,4-triazol-1-yl)-2-methylpyrimidin-4-yl)cyclopropyl)-3-methyl-1,2,4-oxadiazole]"
7,2.5,"Cc1nc([C@H]2C[C@@H]2c2nc3ccccc3n2C)cc(-n2nc(C)nc2C2CCCCC2)n1 (stereo in doubt) [Cpd 79, 2-{2-[6-(5-cyclohexyl-3-methyl-1H-1,2,4-triazol-1-yl)-2-methylpyrimidin-4-yl]cyclopropyl}-1-methyl-1H-benzimidazole]"
